Reference: patent US20260232682A1, “GSPT1 DEGRADER COMPOUNDS” (Captor Therapeutics S.A., priority 2023, published 2026)

Columns and labels:
[1] = target: CRBN/DDB1 protein complex (Homo sapiens, UniProt Q96SW2); assay: CRBN displacement TR-FRET assay; conditions: Thalidomide-Red tracer, 6×His-CRBN/DDB1; read-out: CRBN binding Ki
Method: CRBN/DDB1 protein complex was mixed with Thalidomide-Red and a compound to be tested (the “test compound”). The test solution contained PPI Europium detection buffer, 1 mM DTT, 6.8 nM Thalidomide-Red (the tracer), 5 nM 6×His-CRBN/DDB1 protein, 0.5 nM Anti-6× His-Eu cryptate, 1% DMSO. The test solution was added to a 384-well assay plate.
The plate was spun-down (1 min, 1000 rpm, 22° C.) and then shaken using a VibroTurbulator for 30 sec at room temperature (20-25° C.), with the frequency set to level 10. The assay plate with protein and the tracer was incubated for 180 min at room temperature (20-25° C.) prior to read-out with a plate reader. The read-out was performed with plate reader (Pherastar, BMG Labtech) in time resolved fluorescence mode. Filter settings: TR 337 665 620.
The CRBN displacement TR-FRET experiment was carried out with various concentrations of the test compounds in order to measure Ki values.
The Ki values of competitive inhibitors were calculated using the equation based on the IC50 values of relationship between compound concentration and measured […], the Kd value of the Thalidomide-Red and CRBN/DDB1 complex, and the concentrations of the protein and the tracer in the displacement assay (as described by Cheng and Prusoff, Biochem Pharmacol 1973; 22:3099-3108).

[2] = target: [GSPT1]-[compound of formula (I)]-[CRBN/DDB1] complex (Homo sapiens, UniProt P15170+Q96SW2); assay: AlphaLISA ternary complex formation assay (GSPT1); assay type: binding; conditions: 0.5 h; 1 μM compound; normalized to reference compound CC-885; read-out: Normalized AlphaLISA ternary complex average signal at 1 μM molecule
Method: The effect of the molecular glue compounds of the invention on the formation of a ternary complex composed of [GSPT1]-[compound of formula (I)]-[CRBN/DDB1] was investigated with two methods: AlphaLISA dose response assay or HTRF ternary complex assay.
Two types of protein solution were prepared: • 200 nM biotinylated GSPT1 (Table 3), 40 μg/ml AlphaScreen Streptavidin-coated Donor Beads in HBS (10 mM HEPES, 150 mM NaCL, pH 7.4) buffer with 0.1% Tween-20 and 1 mM DTT, • 200 nM 6×His-CRBN/DDB1, 40 μg/ml AlphaLISA Anti-6×His Acceptor beads in HBS buffer with 0.1% Tween-20 and 1 mM DTT.
(§1) The prepared solutions were incubated at room temperature for 30 min and then the solution containing the donor beads was mixed with the solution containing the acceptor beads.
(§2) The tested compounds were dispensed onto a white 384-well AlphaPlate 384 SW. DMSO was backfilled to all wells, resulting in a final DMSO content of 2%. Wells containing only DMSO served as background. Next, 10 μl of solution with donor and acceptor beads was added to the wells.
(§3) The plate was sealed with transparent film and shaken using a VibroTurbulator for 60 sec at room temperature, level 3. The plate was then spun down shortly (10 sec, 1000 rcf, room temperature) and incubated at 25° C. for 30 min.
(§4) The read-out was performed with PerkinElmer Enspire Multimode Plate Reader (method for AlphaLISA 384-well low volume, Filterset: λexc=680 nm, λem=615 nm).
(§5) The results were analyzed as follows: • 1) an average of luminescence for background signal was calculated and used as a negative control; • 2) average of the maximum measured luminescence for reference compound (structure shown in Table 3 below) was calculated and used as an internal positive control; • 3) raw luminescence values were normalized against positive and negative controls; • 4) Normalized responses to positive control were determined.

[3] = target: T1, [SALL4 ZF2]-[compound]-[CRBN/DDB1] ternary complex (Homo sapiens, UniProt Q96SW2+Q9UJQ4); assay: AlphaLISA assay for off-target recruitment detection, SALL4 ZF2; assay type: binding; conditions: 1 μM compound; normalized to Lenalidomide; read-out: Normalized ternary complex response, SALL4 ZF2
T1 construct: SALL4 ZF2
Method: (§6) The ability of the molecular glue compounds of the invention to mediate the proximity of CRBN with its known neo-substrates (shown in Table 3) was assessed using AlphaLISA to detect the formation of a [neo-substrate]-[compound of formula (I)]-[CRBN/DDB1] ternary complex.
(§7) Two types of protein solution were prepared: • neo-substrate, 40 μg/ml AlphaScreen Donor Beads (Table 3) in PBS (10 mM phosphate buffer, 137 mM NaCL, 2.7 mM KCl, pH 7.4) buffer supplemented with Tween-20 (Table 3) and 1 mM DTT, • 200 nM 6×His-CRBN/DDB1, 40 μg/ml AlphaLISA Anti-6×His Acceptor beads in PBS buffer with Tween-20 (Table 3) and 1 mM DTT.
as §1, §2, §3, §4
as §5, with “2) an” for “2)”, “compound (Table 3)” for “compound (structure shown in Table 3 below)”, “to reference molecular glue” for “to positive control”

[4] = target: T2, [IKZF1 ZF2]-[compound]-[CRBN/DDB1] ternary complex (Homo sapiens, UniProt Q13422+Q96SW2); assay: AlphaLISA assay for off-target recruitment detection, IKZF1 ZF2; assay type: binding; conditions: 1 μM compound; normalized to Lenalidomide; read-out: Normalized ternary complex response, IKZF1 ZF2
T2 construct: IKZF1 ZF2
Method: as §6, §7, §1, §2, §3, §4
as §5, with “2) an” for “2)”, “compound (Table 3)” for “compound (structure shown in Table 3 below)”, “to reference molecular glue” for “to positive control”

[5] = target: T3, [IKZF2 ZF2]-[compound]-[CRBN/DDB1] ternary complex (Homo sapiens, UniProt Q96SW2+Q9UKS7); assay: AlphaLISA assay for off-target recruitment detection, IKZF2 ZF2; assay type: binding; conditions: 1 μM compound; normalized to Helios modulator; read-out: Normalized ternary complex response, IKZF2 ZF2
T3 construct: IKZF2 ZF2
Method: as §6, §7, §1, §2, §3, §4
as §5, with “2) an” for “2)”, “compound (Table 3)” for “compound (structure shown in Table 3 below)”, “to reference molecular glue” for “to positive control”

GSPT1-HiBiT HEK293 cells = assay: Cell Viability-CTG assay accompanying the Nano-Glo HiBiT assay; assay type: cell-based; conditions: 6 hours treatment, viability of GSPT1-HiBiT HEK293 cells
Method: In parallel, the Cell Viability-CTG assay was performed to ensure that the potential decrease of the luminescent signal observed in the Nano-Glo HiBiT assay is a result of protein degradation and not a result of decreasing cell viability. For CTG assay accompanying the Nano-Glo HiBiT assay, cells were cultured, seeded and treated as described above. After 6 hours of incubation (37° C., 5% CO2), plates were removed from the incubator and let to equilibrate to RT. Luminescent signal detection was conducted using the CellTiter-Glo Lumiescent Cell Viability Assay (Promega, cat. nr G7573). 10 μL of the Cell Titer Glo reagent was added per well, plates were shaken to facilitate lysis (460 rpm, 4 min, RT) and incubated in the dark for the following 8 min. Luminescence was read using the CLARIOstar multimode plate reader (BMG LABTECH). The raw data (the relative luminescence unit values, RLU) were uploaded under the relevant protocol and analysed in CDDVault data management platform, in a manner similar to the description above. The Mean Minimum values were calculated in CDDVault using non-linear regression and appropriate equations.

[GSPT1]-[compound of formula (I)]-[CRBN/DDB1] complex, sequence (P15170 whole entry): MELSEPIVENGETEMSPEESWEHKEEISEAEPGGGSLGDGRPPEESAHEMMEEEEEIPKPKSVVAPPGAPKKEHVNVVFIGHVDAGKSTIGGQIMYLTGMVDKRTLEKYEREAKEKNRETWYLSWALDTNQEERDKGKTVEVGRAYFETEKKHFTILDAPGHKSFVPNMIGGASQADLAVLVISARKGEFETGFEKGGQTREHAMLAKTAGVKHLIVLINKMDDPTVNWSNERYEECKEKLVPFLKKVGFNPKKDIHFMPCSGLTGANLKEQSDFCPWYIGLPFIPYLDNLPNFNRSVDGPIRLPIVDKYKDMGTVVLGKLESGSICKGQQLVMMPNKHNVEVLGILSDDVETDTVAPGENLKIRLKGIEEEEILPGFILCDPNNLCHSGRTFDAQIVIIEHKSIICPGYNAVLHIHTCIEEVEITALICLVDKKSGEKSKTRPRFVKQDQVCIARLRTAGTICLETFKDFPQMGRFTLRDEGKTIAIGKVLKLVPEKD
[GSPT1]-[compound of formula (I)]-[CRBN/DDB1] complex, sequence (Q96SW2 whole entry): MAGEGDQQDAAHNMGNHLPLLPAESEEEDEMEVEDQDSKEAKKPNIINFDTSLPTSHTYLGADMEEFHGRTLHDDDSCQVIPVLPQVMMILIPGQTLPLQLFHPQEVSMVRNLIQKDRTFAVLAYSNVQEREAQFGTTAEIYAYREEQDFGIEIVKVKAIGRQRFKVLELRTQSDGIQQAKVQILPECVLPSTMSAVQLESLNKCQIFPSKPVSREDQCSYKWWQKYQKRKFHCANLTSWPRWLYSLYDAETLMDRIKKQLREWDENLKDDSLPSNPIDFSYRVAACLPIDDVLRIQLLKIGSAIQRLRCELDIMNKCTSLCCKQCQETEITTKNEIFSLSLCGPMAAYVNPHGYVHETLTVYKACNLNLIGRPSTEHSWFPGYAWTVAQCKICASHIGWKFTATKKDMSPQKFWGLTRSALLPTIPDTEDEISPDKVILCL
[GSPT1]-[compound of formula (I)]-[CRBN/DDB1] complex, sequence (Q16531 whole entry partner): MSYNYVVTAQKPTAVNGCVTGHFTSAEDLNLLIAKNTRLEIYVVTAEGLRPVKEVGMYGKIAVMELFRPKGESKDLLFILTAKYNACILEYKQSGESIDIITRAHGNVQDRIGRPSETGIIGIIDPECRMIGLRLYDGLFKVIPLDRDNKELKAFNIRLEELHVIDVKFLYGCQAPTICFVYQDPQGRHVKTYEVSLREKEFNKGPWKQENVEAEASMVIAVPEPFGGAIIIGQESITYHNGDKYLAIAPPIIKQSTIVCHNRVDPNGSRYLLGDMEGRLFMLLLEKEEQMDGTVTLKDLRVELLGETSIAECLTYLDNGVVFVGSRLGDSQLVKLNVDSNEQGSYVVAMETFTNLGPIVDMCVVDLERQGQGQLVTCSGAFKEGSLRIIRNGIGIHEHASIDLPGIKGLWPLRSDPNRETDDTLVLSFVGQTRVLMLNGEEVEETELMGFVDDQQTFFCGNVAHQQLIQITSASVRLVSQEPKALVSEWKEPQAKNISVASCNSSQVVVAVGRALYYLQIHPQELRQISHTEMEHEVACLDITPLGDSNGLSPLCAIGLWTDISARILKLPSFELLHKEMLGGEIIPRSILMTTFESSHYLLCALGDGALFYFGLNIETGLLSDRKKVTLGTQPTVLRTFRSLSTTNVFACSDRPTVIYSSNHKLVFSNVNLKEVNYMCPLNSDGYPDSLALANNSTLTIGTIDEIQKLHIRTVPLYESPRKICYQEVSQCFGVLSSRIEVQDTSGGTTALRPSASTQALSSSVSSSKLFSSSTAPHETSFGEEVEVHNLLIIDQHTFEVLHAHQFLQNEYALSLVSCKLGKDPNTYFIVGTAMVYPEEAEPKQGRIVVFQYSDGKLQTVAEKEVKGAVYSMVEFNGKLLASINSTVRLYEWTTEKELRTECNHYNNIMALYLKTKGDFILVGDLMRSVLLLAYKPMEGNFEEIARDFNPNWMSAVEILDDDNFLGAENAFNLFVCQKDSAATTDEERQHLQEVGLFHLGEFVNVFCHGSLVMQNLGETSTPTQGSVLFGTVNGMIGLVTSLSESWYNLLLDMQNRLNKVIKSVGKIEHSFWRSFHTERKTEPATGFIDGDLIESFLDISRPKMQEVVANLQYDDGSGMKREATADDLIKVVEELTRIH
T1 sequence (Q9UJQ4 410-432 limits assumed): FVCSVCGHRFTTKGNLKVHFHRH
T1 sequence (Q96SW2 whole entry): as the sequence (Q96SW2 whole entry) above
T1 sequence (Q16531 whole entry partner): as the sequence (Q16531 whole entry partner) above
T2 sequence (Q13422 145-167 limits assumed): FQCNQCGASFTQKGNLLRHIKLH
T2 sequence (Q96SW2 whole entry): as the sequence (Q96SW2 whole entry) above
T2 sequence (Q16531 whole entry partner): as the sequence (Q16531 whole entry partner) above
CRBN/DDB1 protein complex, sequence (Q96SW2 whole entry, species assumed): as the sequence (Q96SW2 whole entry) above
CRBN/DDB1 protein complex, sequence (Q16531 whole entry partner, species assumed): as the sequence (Q16531 whole entry partner) above
T3 sequence (Q9UKS7 140-162 limits assumed): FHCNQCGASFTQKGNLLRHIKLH
T3 sequence (Q96SW2 whole entry): as the sequence (Q96SW2 whole entry) above
T3 sequence (Q16531 whole entry partner): as the sequence (Q16531 whole entry partner) above

Compound	Ki [1] [nM]	activation at 1 µM [2] [%]	activation at 1 µM [3] [%]	activation at 1 µM [4] [%]	activation at 1 µM [5] [%]	CTG assay Mean minimum (GSPT1-HiBiT HEK293 cells)
Cc1nc2cc(COC(=O)Nc3cc(OC(F)(F)F)ccc3F)ccc2cc1C1CCC(=O)NC1=O (stereo not shown) [Compound 6, (3-(2,6-dioxopiperidin-3-yl)-2-methylquinolin-7-yl)methyl (2-fluoro-5-(trifluoromethoxy)phenyl)carbamate]	> 1000	10 to 50	< 10	< 10	< 10	++++ (++++≥75% of viability of the HiBiT-GSPT1 HEK293 cells)
Cc1nc2cc(COC(=O)Nc3ccc(C(C)(C)C)cc3)ccc2cc1C1CCC(=O)NC1=O (stereo not shown) [Compound 8, (3-(2,6-dioxopiperidin-3-yl)-2-methylquinolin-7-yl)methyl (4-(tert-butyl)phenyl)carbamate]	< 500	> 50	< 10	< 10	< 10	++++ (++++≥75% of viability of the HiBiT-GSPT1 HEK293 cells)
Cc1nc2cc(COC(=O)Nc3cccc(C(C)(C)C)c3)ccc2cc1C1CCC(=O)NC1=O (stereo not shown) [Compound 9, (3-(2,6-dioxopiperidin-3-yl)-2-methylquinolin-7-yl)methyl (3-(tert-butyl)phenyl)carbamate]	> 1000	10 to 50	< 10	< 10	< 10	++++ (++++≥75% of viability of the HiBiT-GSPT1 HEK293 cells)
Cc1nc2cc(COC(=O)Nc3ccc(C(C)(C)C)c(Cl)c3)ccc2cc1C1CCC(=O)NC1=O (stereo not shown) [Compound 10, (3-(2,6-dioxopiperidin-3-yl)-2-methylquinolin-7-yl)methyl (4-(tert-butyl)-3-chlorophenyl)carbamate]	< 500	10 to 50	< 10	< 10	< 10	++++ (++++≥75% of viability of the HiBiT-GSPT1 HEK293 cells)
COc1ccc(NC(=O)OCc2ccc3cc(C4CCC(=O)NC4=O)c(C)nc3c2)cc1Cl (stereo not shown) [Compound 11, (3-(2,6-dioxopiperidin-3-yl)-2-methylquinolin-7-yl)methyl (3-chloro-4-methoxyphenyl)carbamate]	> 1000	> 50	< 10	< 10	< 10	++++ (++++≥75% of viability of the HiBiT-GSPT1 HEK293 cells)
Cc1nc2cc(COC(=O)Nc3ccc4c(c3)OCO4)ccc2cc1C1CCC(=O)NC1=O (stereo not shown) [Compound 14, (3-(2,6-dioxopiperidin-3-yl)-2-methylquinolin-7-yl)methyl benzo[d][1,3]dioxol-5-ylcarbamate]	> 1000	10 to 50	< 10	< 10	< 10	++++ (++++≥75% of viability of the HiBiT-GSPT1 HEK293 cells)
Cc1nc2cc(COC(=O)Nc3ccc4c(c3)OCCO4)ccc2cc1C1CCC(=O)NC1=O (stereo not shown) [Compound 15, (3-(2,6-dioxopiperidin-3-yl)-2-methylquinolin-7-yl)methyl (2,3-dihydrobenzo[b][1,4]dioxin-6-yl)carbamate]	> 1000	10 to 50	< 10	< 10	< 10	++++ (++++≥75% of viability of the HiBiT-GSPT1 HEK293 cells)

More lines, main results first:

Ki [1] [nM]	activation at 1 µM [2] [%]	activation at 1 µM [3] [%]	activation at 1 µM [4] [%]	activation at 1 µM [5] [%]	Compound	CTG assay Mean minimum (GSPT1-HiBiT HEK293 cells)
500 to 1000	10 to 50	< 10	< 10	< 10	Cc1ccc(NC(=S)NCc2ccc3cc(C4CCC(=O)NC4=O)c(C)nc3c2)cc1Cl (stereo not shown) [Compound 2, 1-(3-chloro-4-methylphenyl)-3-((3-(2,6-dioxopiperidin-3-yl)-2-methylquinolin-7-yl)methyl)thiourea]	–
500 to 1000	> 50	< 10	< 10	< 10	Cc1ccc(NC(=O)OCc2ccc3cc(C4CCC(=O)NC4=O)c(C)nc3c2)cc1Cl (stereo not shown) [Compound 4, (3-(2,6-dioxopiperidin-3-yl)-2-methylquinolin-7-yl)methyl (3-chloro-4-methylphenyl)carbamate]	++++ (++++≥75% of viability of the HiBiT-GSPT1 HEK293 cells)
< 500	> 50	25 to 50	25 to 50	10 to 25	Cc1ccc(NC(=O)OCc2ccc3nc(C)c(C4CCC(=O)NC4=O)cc3c2)cc1Cl (stereo not shown) [Compound 5, (3-(2,6-dioxopiperidin-3-yl)-2-methylquinolin-6-yl)methyl (3-chloro-4-methylphenyl)carbamate]	–
> 1000	10 to 50	< 10	< 10	< 10	Cc1nc2cc(COC(=O)Nc3ccc(Cl)c(Cl)c3)ccc2cc1C1CCC(=O)NC1=O (stereo not shown) [Compound 12, (3-(2,6-dioxopiperidin-3-yl)-2-methylquinolin-7-yl)methyl (3,4-dichlorophenyl)carbamate]	++++ (++++≥75% of viability of the HiBiT-GSPT1 HEK293 cells)
